Data published in patent publication US6468476B1, “Methods for using-co-regulated genesets to enhance detection and classification of gene expression patterns” (Rosetta Inpharmatics, Inc., priority 1998, dated 2002).

Tested on: genes regulated by the Gcn4 transcription factor
Assay: Transcript response (DNA microarray) to a titration series of FK506, genes of the Gcn4 geneset
Type: cell-based, Saccharomyces cerevisiae
Method: Yeast (Saccharomyces cerevisiae, Strain YPH499, see, Sikorski and Hieter, 1989, A system of shuttle vectors and yeast host strains designated for efficient manipulation of DNA in Saccharomyces cerevisiae, Genetics 122:19-27) cells were grown in YAPD at 30° C. to an OD600 of 1.0 (±0.2), and total RNA prepared by breaking cells in phenol/chloroform and 0.1% SDS by standard procedures (Ausubel et al., 1995, Current Protocols in Molecular Biology, Greene Publishing and Wiley-Interscience, New York, Ch. 13). Poly(A)^+ RNA was selected by affinity chromatography on oligo-dT cellulose (New England Biolabs) essentially as described in Sambrook et al. (Molecular Cloning—A Laboratory Manual (2nd Ed.), Vol. 1, Cold Spring Harbor Laboratory, Cold Spring Harbor, N.Y., 1989). First strand cDNA synthesis was carried out with 2 μg poly(A)^+ RNA and SuperScript™ II reverse transcriptase (Gibco-BRL) according to the manufacturer's instructions with the following modifications. Deoxyribonucleotides were present at the following concentrations: dA, dG, and dC at 500 μM each, dT at 100 μM and either Cy3-dUTP or Cy5-dUTP (Amersham) at 100 μM. cDNA synthesis reactions were carried out at 42-44° C. for 90 minutes, after which RNA was degraded by the addition of 2 units of RNAse H, and the cDNA products were purified by two successive rounds of centrifugation dialysis using MICROCON-30 microconcentrators (Amicon) according to the manufacturer's recommendations.
Double-stranded DNA polynucleotides corresponding in sequence to each ORF in the S. cerevisiae genome encoding a polypeptide greater than 99 amino acids (based on the published yeast genomic sequence, e.g., Goffeau et al., 1996, Science 274:546-567) are made by polymerase chain reaction (PCR) amplification of yeast genomic DNA. Two PCR primers are chosen internal to each of the ORFs according to two criteria: (i) the amplified fragments are 300-800 bp and (ii) none of the fragments have a section of more than 10 consecutive nucleotides of sequence in common. Computer programs are used to aid in the design of the PCR primers. Amplification is carried out in 96 well microtitre plates. The resulting DNA fragments are printed onto glass microscope slides using the method of Shalon et al., 1996, Genome Research 6:639-645.
Fluorescently-labeled cDNAs (2-6 μg) are resuspended in 4×SSC plus 1 μg/μl tRNA as carrier and filtered using […] filters (Millipore, Bedford, Mass.). SDS is added to 0.3%, prior to heating to 100° C. for 2 minutes. Probes are cooled and immediately hybridized to the microarrays produced as described in Example 6.2, for 4 hours at 65° C. Non-hybridized probe is removed by washing in 1×SSC plus 0.1% SDS at ambient temperature for 1-2 minutes. Microarrays are scanned with a fluorescence laser-scanning device as previously described (Schena et al., 1995, Science 270:467-470; Schena et al., 1995, Proc. Natl. Acad. Sci. USA 93:[…]) and the results (including the positions of perturbations) are recorded.
Geneset number 3 in the clustering analysis result of FIG. 6 involves genes regulated by the Gcn4 transcription factor. This was verified via the literature and via multiple sequence alignment analysis of the regulatory regions 5′ to the individual genes (Stormo and Hartzell, 1989, Identifying protein binding sites from unaligned DNA fragments, Proc Natl Acad Sci 86:1183-1187; Hertz and Stormo, 1995, Identification of consensus patterns in unaligned DNA and protein sequences: a large-deviation statistical basis for penalizing gaps, Proc of 3rd Intl Conf on Bioinformatics and Genome Research, Lim and Cantor, eds., World Scientific Publishing Co., Ltd. Singapore, pp. 201-216). […] These 20 were used to define a geneset. Response profiles to a titration series of the drug FK506, which is known to hit this pathway at higher concentrations, were projected onto this geneset. […]

C=CC[C@@H]1/C=C(\C)C[C@H](C)C[C@H](OC)[C@H]2O[C@@](O)(C(=O)C(=O)N3CCCC[C@H]3C(=O)O[C@H](/C(C)=C/[C@@H]3CC[C@@H](O)[C@H](OC)C3)[C@H](C)[C@@H](O)CC1=O)[C@H](C)C[C@@H]2OC [FK506]
Geneset Average response (projected response of the 20-gene Gcn4 geneset) (FK506 0.1 μg/ml): 0.1728 standard deviations of Log10(Expression Ratio)
Response of gene ARG1 (FK506 0.1 μg/ml): 0.2083 standard deviations of Log10(Expression Ratio)
Response of gene ARG4 (FK506 0.1 μg/ml): 0.3585 standard deviations of Log10(Expression Ratio)
Response of gene ARG5,6 (FK506 0.1 μg/ml): 0.1162 standard deviations of Log10(Expression Ratio)
Response of gene ECM13 (FK506 0.1 μg/ml): 0.1269 standard deviations of Log10(Expression Ratio)
Response of gene HIS3 (FK506 0.1 μg/ml): −0.3719 standard deviations of Log10(Expression Ratio)
Response of gene HIS5 (FK506 0.1 μg/ml): 0.0292 standard deviations of Log10(Expression Ratio)
Response of gene MET16 (FK506 0.1 μg/ml): 0.0225 standard deviations of Log10(Expression Ratio)
Response of gene NCE3 (FK506 0.1 μg/ml): 0.0371 standard deviations of Log10(Expression Ratio)
Response of gene PCL5 (FK506 0.1 μg/ml): 0.1418 standard deviations of Log10(Expression Ratio)
Response of gene SNO1 (FK506 0.1 μg/ml): −0.2899 standard deviations of Log10(Expression Ratio)
Response of gene SNZ1 (FK506 0.1 μg/ml): −0.7223 standard deviations of Log10(Expression Ratio)
Response of gene SSU1 (FK506 0.1 μg/ml): 0.6257 standard deviations of Log10(Expression Ratio)
Response of gene YBR047W (FK506 0.1 μg/ml): 0.0781 standard deviations of Log10(Expression Ratio)
Response of gene YER024W (FK506 0.1 μg/ml): 0.1985 standard deviations of Log10(Expression Ratio)
Response of gene YGL117W (FK506 0.1 μg/ml): 0.6309 standard deviations of Log10(Expression Ratio)
Response of gene YGL184C (FK506 0.1 μg/ml): 0.0654 standard deviations of Log10(Expression Ratio)
Response of gene YHR029C (FK506 0.1 μg/ml): −0.031 standard deviations of Log10(Expression Ratio)
Response of gene YMR195W (FK506 0.1 μg/ml): 0.7615 standard deviations of Log10(Expression Ratio)
Geneset Average response (projected response of the 20-gene Gcn4 geneset) (FK506 0.31 μg/ml): 0.6753 standard deviations of Log10(Expression Ratio)
Response of gene ARG1 (FK506 0.31 μg/ml): 0.3436 standard deviations of Log10(Expression Ratio)
Response of gene ARG4 (FK506 0.31 μg/ml): 0.3508 standard deviations of Log10(Expression Ratio)
Response of gene ARG5,6 (FK506 0.31 μg/ml): 0.2722 standard deviations of Log10(Expression Ratio)
Response of gene ARO3 (FK506 0.31 μg/ml): −0.1371 standard deviations of Log10(Expression Ratio)
Response of gene ECM13 (FK506 0.31 μg/ml): 0.2197 standard deviations of Log10(Expression Ratio)
Response of gene HIS3 (FK506 0.31 μg/ml): 0.1282 standard deviations of Log10(Expression Ratio)
Response of gene HIS5 (FK506 0.31 μg/ml): 0.2175 standard deviations of Log10(Expression Ratio)
Response of gene MET16 (FK506 0.31 μg/ml): −0.6269 standard deviations of Log10(Expression Ratio)
Response of gene NCE3 (FK506 0.31 μg/ml): 0.1668 standard deviations of Log10(Expression Ratio)
Response of gene PCL5 (FK506 0.31 μg/ml): 0.2767 standard deviations of Log10(Expression Ratio)
Response of gene SNO1 (FK506 0.31 μg/ml): 0.0244 standard deviations of Log10(Expression Ratio)
Response of gene SNZ1 (FK506 0.31 μg/ml): 0.0244 standard deviations of Log10(Expression Ratio)
Response of gene SSU1 (FK506 0.31 μg/ml): 0.6655 standard deviations of Log10(Expression Ratio)
Response of gene YBR047W (FK506 0.31 μg/ml): 0.1553 standard deviations of Log10(Expression Ratio)
Response of gene YER024W (FK506 0.31 μg/ml): −0.0419 standard deviations of Log10(Expression Ratio)
Response of gene YGL117W (FK506 0.31 μg/ml): 0.6768 standard deviations of Log10(Expression Ratio)
Response of gene YGL184C (FK506 0.31 μg/ml): −0.0207 standard deviations of Log10(Expression Ratio)
Response of gene YHR029C (FK506 0.31 μg/ml): 0.2438 standard deviations of Log10(Expression Ratio)
Response of gene YMR195W (FK506 0.31 μg/ml): 0.3323 standard deviations of Log10(Expression Ratio)
'Geneset' response, significance (FK506 1.6 μg/ml): > 3 sigrna
Geneset Average response (projected response of the 20-gene Gcn4 geneset) (FK506 1.6 μg/ml): 3.3045 standard deviations of Log10(Expression Ratio)
Response of gene ARG1 (FK506 1.6 μg/ml): 3.1765 standard deviations of Log10(Expression Ratio)
Response of gene ARG4 (FK506 1.6 μg/ml): 1.6674 standard deviations of Log10(Expression Ratio)
Response of gene ARG5,6 (FK506 1.6 μg/ml): 1.1844 standard deviations of Log10(Expression Ratio)
Response of gene ARO3 (FK506 1.6 μg/ml): 0.2684 standard deviations of Log10(Expression Ratio)
Response of gene CPA2 (FK506 1.6 μg/ml): 1.2429 standard deviations of Log10(Expression Ratio)
Response of gene ECM13 (FK506 1.6 μg/ml): 0.5226 standard deviations of Log10(Expression Ratio)
Response of gene HIS3 (FK506 1.6 μg/ml): 0.71 standard deviations of Log10(Expression Ratio)
Response of gene HIS5 (FK506 1.6 μg/ml): 0.9802 standard deviations of Log10(Expression Ratio)
Response of gene MET16 (FK506 1.6 μg/ml): −0.1885 standard deviations of Log10(Expression Ratio)
Response of gene NCE3 (FK506 1.6 μg/ml): 1.2896 standard deviations of Log10(Expression Ratio)
Response of gene PCL5 (FK506 1.6 μg/ml): 0.4127 standard deviations of Log10(Expression Ratio)
Response of gene SNO1 (FK506 1.6 μg/ml): −0.4772 standard deviations of Log10(Expression Ratio)
Response of gene SNZ1 (FK506 1.6 μg/ml): −0.4772 standard deviations of Log10(Expression Ratio)
Response of gene SSU1 (FK506 1.6 μg/ml): 0.2883 standard deviations of Log10(Expression Ratio)
Response of gene YBR047W (FK506 1.6 μg/ml): 0.2806 standard deviations of Log10(Expression Ratio)
Response of gene YER024W (FK506 1.6 μg/ml): 0.4868 standard deviations of Log10(Expression Ratio)
Response of gene YGL117W (FK506 1.6 μg/ml): 1.6276 standard deviations of Log10(Expression Ratio)
Response of gene YGL184C (FK506 1.6 μg/ml): −0.0731 standard deviations of Log10(Expression Ratio)
Response of gene YHR029C (FK506 1.6 μg/ml): 0.4421 standard deviations of Log10(Expression Ratio)
Response of gene YMR195W (FK506 1.6 μg/ml): 1.6021 standard deviations of Log10(Expression Ratio)
